Measurements taken from patent US20240287138A1, “CYCLIC PEPTIDES FOR INHIBITING TNF RECEPTOR 1 ACTIVITY” (Merck Sharp & Dohme LLC, priority 2023, published 2024).
Numbered stars: 1 amine (or outer) side, 2 acyl side, 3 side chain; on linkers, the order of the positions; unused ones are H or OH. Bridge positions count the residues as written; N and C are the ends. Square brackets hold non-standard residues; d marks the D form. Peptide text beside a SMILES is read from it. * marks the point of attachment. Trp(βS-Me,7-OMe) = COc1cccc2c([C@H](C)[C@H](N)C(=O)O)c[nH]c12; Phe(4-CH2SO3H) = N[C@@H](Cc1ccc(CS(=O)(=O)O)cc1)C(=O)O; Trp(7-CN) = N#Cc1cccc2c(C[C@H](N)C(=O)O)c[nH]c12; Trp(7-Cl) = N[C@@H](Cc1c[nH]c2c(Cl)cccc12)C(=O)O; Ala(pyrimidin-5-yl) = N[C@@H](Cc1cncnc1)C(=O)O; Phe(4-CONH2) = NC(=O)c1ccc(C[C@H](N)C(=O)O)cc1; Phe(4-COOH) = N[C@@H](Cc1ccc(C(=O)O)cc1)C(=O)O; 4Pal(3S-Me) = C[C@@H](c1ccncc1)[C@H](N)C(=O)O; Trp(7-aza) = N[C@@H](Cc1c[nH]c2ncccc12)C(=O)O; Nle(6-COOH) = N[C@@H](CCCCC(=O)O)C(=O)O; Tyr(2-F) = N[C@@H](Cc1ccc(O)cc1F)C(=O)O; X1 = O=C([C@@H]1CC[C@H](N[*:1])C1)[*:2]; X45 = O=C([C@H]1CC2(CC2)CN1[*:1])[*:2]; Val(3-OH) = CC(C)(O)[C@H](N)C(=O)O; Pip(4-aza) = O=C(O)[C@@H]1CNCCN1; 4Pal = N[C@@H](Cc1ccncc1)C(=O)O; NMeE = CN[C@@H](CCC(=O)O)C(=O)O; dHyp = O=C(O)[C@H]1C[C@H](O)CN1; Ahp(2) = CCCCC[C@H](N)C(=O)O; NMeS = CN[C@@H](CO)C(=O)O; hSer = N[C@@H](CCO)C(=O)O; αMeS = C[C@](N)(CO)C(=O)O; Nle = CCCC[C@H](N)C(=O)O; X37 = c1cncc(N*)c1; Sar = CNCC(=O)O

Key:
[1] = molecular target: T1, human soluble TNFR1 (sTNFR1) (Homo sapiens, UniProt P19438); test: Human sTNFR1-peptide displacement assay (LanthaScreen Eu TR-FRET binding assay)
T1 construct: made in house; host or cells: Sf21 (baculovirus)
T1 sequence (P19438 with tags, fused parts or gaps): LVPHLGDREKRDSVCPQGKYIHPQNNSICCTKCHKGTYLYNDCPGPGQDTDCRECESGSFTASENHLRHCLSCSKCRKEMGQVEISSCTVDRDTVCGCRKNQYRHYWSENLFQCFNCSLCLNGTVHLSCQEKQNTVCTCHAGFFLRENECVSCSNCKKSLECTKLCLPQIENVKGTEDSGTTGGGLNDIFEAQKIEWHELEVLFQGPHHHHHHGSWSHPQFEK
Method in brief: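 Readout is the 665/615 nm TR-FRET ratio (Eu anti-His donor, streptavidin-Alexa647 acceptor), normalized to DMSO and saturating displacer, fit by Morrison-based five-parameter logistic for Kd^app. His-tagged sTNFR1 (1-211) prebound to 100 nM biotinylated peptide SEQ ID NO.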

[2] = molecular target: T2, TNFα-induced NF-κB signal transduction pathway (TNFR1 signaling) in THP-1 cells (Homo sapiens, UniProt P19438); test: THP-1 Lucia NF-κB reporter cell assay, inhibition of TNFα-induced NF-κB signaling; assay type: cell-based; conditions: THP-1 NF-κB Lucia reporter cells, 10 ng/mL TNFα, 16-18 h, secreted luciferase; read-out: THP-1 IC50
T2 sequence (P19438 30-455): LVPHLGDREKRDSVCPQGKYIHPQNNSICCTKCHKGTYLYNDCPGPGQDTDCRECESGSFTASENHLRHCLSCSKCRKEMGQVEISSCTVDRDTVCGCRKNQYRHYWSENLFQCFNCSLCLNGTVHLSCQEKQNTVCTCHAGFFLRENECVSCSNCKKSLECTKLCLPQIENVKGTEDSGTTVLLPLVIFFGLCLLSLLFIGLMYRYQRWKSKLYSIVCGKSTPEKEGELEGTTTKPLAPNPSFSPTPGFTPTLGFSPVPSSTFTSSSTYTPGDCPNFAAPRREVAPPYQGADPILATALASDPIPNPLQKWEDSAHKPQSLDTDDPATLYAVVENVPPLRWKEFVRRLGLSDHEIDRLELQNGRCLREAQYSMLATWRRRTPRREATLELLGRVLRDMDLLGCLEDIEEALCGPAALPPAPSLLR
Method in brief: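 IC50 from a 4-parameter logistic fit of secreted luciferase luminescence (QUANTI-Luc), normalised to min/max controls. Reporter THP-1 cells were exposed to peptides for 1 h at 37 °C before 10 ng/mL TNFα (final) was added overnight (16–18 h).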

## CCCC[C@@H]1NC(=O)CSC[C@@H](C(N)=O)NC(=O)[C@H]([C@@H](C)c2c[nH]c3c(OC)cccc23)NC(=O)CN(C)C(=O)[C@H](Cc2ccc(OC)cc2)NC(=O)[C@H](Cc2ccc(C(=O)O)cc2)NC(=O)[C@](C)(CO)NC(=O)[C@H](Cc2c[nH]c3c(Cl)cccc23)NC(=O)[C@H](Cc2ccc(C(N)=O)cc2)NC(=O)[C@H](CC(N)=O)NC(=O)[C@H](CCC(=O)O)N(C)C(=O)[C@H](Cc2c[nH]c3ccccc23)NC(=O)[C@@H]2CNCCN2C(=O)[C@H](Cc2ccncc2)NC1=O [SEQ ID NO. 162] ({CH2CO}-[Nle][4Pal][Pip(4-aza)]W[NMeE]N[Phe(4-CONH2)][Trp(7-Cl)][αMeS][Phe(4-COOH)]Y(Me)[Sar][Trp(βS-Me,7-OMe)]C-NH2; thioether N-14)
[1]
  IC50: 0.69 nM
  Kd: 0.56 nM
[2]
  IC50: 0.1 nM

## CCCC[C@@H]1NC(=O)CSC[C@@H](C(N)=O)NC(=O)[C@H]([C@@H](C)c2c[nH]c3c(OC)cccc23)NC(=O)CN(C)C(=O)[C@H](Cc2ccc(O)cc2)NC(=O)[C@H](Cc2ccc(C(=O)O)cc2)NC(=O)[C@](C)(CO)NC(=O)[C@H](Cc2c[nH]c3c(Cl)cccc23)NC(=O)[C@H](Cc2ccncc2)NC(=O)[C@H](CC(N)=O)NC(=O)[C@H](CCC(=O)O)N(C)C(=O)[C@H](Cc2c[nH]c3ncccc23)NC(=O)[C@H](C(C)(C)O)NC(=O)[C@H](Cc2ccc(C(N)=O)cc2)NC1=O [SEQ ID NO. 164] ({CH2CO}-[Nle][Phe(4-CONH2)][Val(3-OH)][Trp(7-aza)][NMeE]N[4Pal][Trp(7-Cl)][αMeS][Phe(4-COOH)]Y[Sar][Trp(βS-Me,7-OMe)]C-NH2; thioether N-14)
[1]
  IC50: 0.6 nM
  Kd: 0.5 nM
[2]
  IC50: 3.6 nM

## COc1cccc2c([C@H](C)[C@@H]3NC(=O)CN(C)C(=O)[C@H](Cc4ccc(O)cc4)NC(=O)[C@H](Cc4ccc(C(=O)O)cc4)NC(=O)[C@](C)(CO)NC(=O)[C@H](Cc4c[nH]c5c(Cl)cccc45)NC(=O)[C@H](Cc4ccncc4)NC(=O)[C@H](CC(N)=O)NC(=O)[C@H](CCC(=O)O)N(C)C(=O)[C@H](Cc4c[nH]c5ccccc45)NC(=O)[C@H](CO)N(C)C(=O)[C@H](Cc4ccncc4)NC(=O)[C@H](CCC(=O)Nc4cccnc4)NC(=O)[C@@H]4CC[C@@H](C4)NC3=O)c[nH]c12 [SEQ ID NO. 166] (cyclo([4Pal][NMeS]W[NMeE]N[4Pal][Trp(7-Cl)][αMeS][Phe(4-COOH)]Y[Sar][Trp(βS-Me,7-OMe)][X1]E(X37)))
[1]
  IC50: 0.5 nM
  Kd: 0.44 nM
[2]
  IC50: 2.7 nM

## CCCC[C@@H]1NC(=O)CSC[C@@H](C(N)=O)NC(=O)[C@H]([C@@H](C)c2c[nH]c3c(OC)cccc23)NC(=O)CN(C)C(=O)[C@H](Cc2ccc(O)cc2)NC(=O)[C@H](Cc2ccc(C(=O)O)cc2)NC(=O)[C@](C)(CO)NC(=O)[C@H](Cc2c[nH]c3c(Cl)cccc23)NC(=O)[C@H](Cc2ccncc2)NC(=O)[C@H](CC(N)=O)NC(=O)[C@H]2CC3(CC3)CN2C(=O)[C@H](Cc2c[nH]c3ccccc23)NC(=O)[C@@H]2CNCCN2C(=O)[C@H](Cc2ccncc2)NC1=O [SEQ ID NO. 167] ({CH2CO}-[Nle][4Pal][Pip(4-aza)]W[X45]N[4Pal][Trp(7-Cl)][αMeS][Phe(4-COOH)]Y[Sar][Trp(βS-Me,7-OMe)]C-NH2; thioether N-14)
[1]
  Kd: 0.48 nM
[2]
  IC50: 2.6 nM

## CCCC[C@@H]1NC(=O)[C@@H]2CC[C@@H](C2)NC(=O)[C@H]([C@@H](C)c2c[nH]c3c(OC)cccc23)NC(=O)CN(C)C(=O)[C@H](Cc2ccc(O)cc2)NC(=O)[C@H](Cc2ccc(C(=O)O)cc2)NC(=O)[C@](C)(CO)NC(=O)[C@H](Cc2c[nH]c3c(Cl)cccc23)NC(=O)[C@H](Cc2ccc(CS(=O)(=O)O)cc2)NC(=O)[C@H](CC(N)=O)NC(=O)[C@H](CCC(=O)O)N(C)C(=O)[C@H](Cc2c[nH]c3ccccc23)NC(=O)[C@@H]2CNCCN2C(=O)[C@H](Cc2ccncc2)NC1=O [SEQ ID NO. 171] (cyclo([4Pal][Pip(4-aza)]W[NMeE]N[Phe(4-CH2SO3H)][Trp(7-Cl)][αMeS][Phe(4-COOH)]Y[Sar][Trp(βS-Me,7-OMe)][X1][Nle]))
[1]
  Kd: 0.19 nM
[2]
  IC50: 0.9 nM

## CCCC[C@@H]1NC(=O)[C@@H]2CC[C@@H](C2)NC(=O)[C@H]([C@@H](C)c2c[nH]c3c(OC)cccc23)NC(=O)CN(C)C(=O)[C@H](Cc2ccc(O)cc2F)NC(=O)[C@H](Cc2ccc(C(=O)O)cc2)NC(=O)[C@](C)(CO)NC(=O)[C@H](Cc2c[nH]c3c(Cl)cccc23)NC(=O)[C@H](Cc2ccncc2)NC(=O)[C@H](CC(N)=O)NC(=O)[C@H](CCC(=O)O)N(C)C(=O)[C@H](Cc2c[nH]c3ccccc23)NC(=O)[C@@H]2CNCCN2C(=O)[C@H](Cc2ccncc2)NC1=O [SEQ ID NO. 175] (cyclo([4Pal][Trp(7-Cl)][αMeS][Phe(4-COOH)][Tyr(2-F)][Sar][Trp(βS-Me,7-OMe)][X1][Nle][4Pal][Pip(4-aza)]W[NMeE]N))
[1]
  Kd: 0.22 nM
[2]
  IC50: 0.9 nM

## CCCCC[C@@H]1NC(=O)[C@@H]2CC[C@@H](C2)NC(=O)[C@H]([C@@H](C)c2c[nH]c3c(OC)cccc23)NC(=O)CN(C)C(=O)[C@H](Cc2ccc(C(N)=O)cc2)NC(=O)[C@H](Cc2ccc(C(N)=O)cc2)NC(=O)[C@](C)(CO)NC(=O)[C@H](Cc2c[nH]c3c(C#N)cccc23)NC(=O)[C@H](Cc2ccc(C(=O)O)cc2)NC(=O)[C@H](CC(N)=O)NC(=O)[C@H]2C[C@H](O)CN2C(=O)[C@H](Cc2c[nH]c3ccccc23)NC(=O)[C@H](CCCCC(=O)O)NC(=O)[C@H]([C@@H](C)c2ccncc2)NC1=O [SEQ ID NO. 176] (cyclo([Ahp(2)][4Pal(3S-Me)][Nle(6-COOH)]W[dHyp]N[Phe(4-COOH)][Trp(7-CN)][αMeS][Phe(4-CONH2)][Phe(4-CONH2)][Sar][Trp(βS-Me,7-OMe)][X1]))
[1]
  Kd: 0.22 nM
[2]
  IC50: 1 nM

## CCCC[C@@H]1NC(=O)CSC[C@@H](C(N)=O)NC(=O)[C@H]([C@@H](C)c2c[nH]c3c(OC)cccc23)NC(=O)CN(C)C(=O)[C@H](Cc2ccc(O)cc2)NC(=O)[C@H](Cc2ccc(C(=O)O)cc2)NC(=O)[C@](C)(CO)NC(=O)[C@H](Cc2c[nH]c3c(Cl)cccc23)NC(=O)[C@H](Cc2ccncc2)NC(=O)[C@H](CC(N)=O)NC(=O)[C@H](CCC(=O)O)N(C)C(=O)[C@H](Cc2c[nH]c3ncccc23)NC(=O)[C@H](C(C)(C)O)NC(=O)[C@H](Cc2cncnc2)NC1=O [SEQ ID NO. 177] ({CH2CO}-[Nle][Ala(pyrimidin-5-yl)][Val(3-OH)][Trp(7-aza)][NMeE]N[4Pal][Trp(7-Cl)][αMeS][Phe(4-COOH)]Y[Sar][Trp(βS-Me,7-OMe)]C-NH2; thioether N-14)
[1]
  Kd: 0.54 nM
[2]
  IC50: 3.3 nM

## CCCC[C@@H]1NC(=O)[C@@H]2CC[C@@H](C2)NC(=O)[C@H]([C@@H](C)c2c[nH]c3c(OC)cccc23)NC(=O)CN(C)C(=O)[C@H](Cc2c[nH]cn2)NC(=O)[C@H](Cc2ccc(C(=O)O)cc2)NC(=O)[C@](C)(CO)NC(=O)[C@H](Cc2c[nH]c3c(Cl)cccc23)NC(=O)[C@H](Cc2ccncc2)NC(=O)[C@H](CC(N)=O)NC(=O)[C@H](CCC(=O)O)N(C)C(=O)[C@H](Cc2c[nH]c3ccccc23)NC(=O)[C@@H]2CNCCN2C(=O)[C@H](Cc2ccncc2)NC1=O [SEQ ID NO. 178] (cyclo([4Pal][Trp(7-Cl)][αMeS][Phe(4-COOH)]H[Sar][Trp(βS-Me,7-OMe)][X1][Nle][4Pal][Pip(4-aza)]W[NMeE]N))
[1]
  Kd: 0.29 nM
[2]
  IC50: 3.3 nM

## CCCC[C@@H]1NC(=O)[C@@H]2CC[C@@H](C2)NC(=O)[C@H]([C@@H](C)c2c[nH]c3c(OC)cccc23)NC(=O)CN(C)C(=O)[C@H](Cc2ccc(O)cc2)NC(=O)[C@H](Cc2ccc(C(=O)O)cc2)NC(=O)[C@](C)(CO)NC(=O)[C@H](Cc2c[nH]c3c(Cl)cccc23)NC(=O)[C@H](Cc2ccncc2)NC(=O)[C@H](CCOC)NC(=O)[C@H](CCC(=O)O)N(C)C(=O)[C@H](Cc2c[nH]c3ccccc23)NC(=O)[C@@H]2CNCCN2C(=O)[C@H](Cc2ccncc2)NC1=O [SEQ ID NO. 181] (cyclo([4Pal][Trp(7-Cl)][αMeS][Phe(4-COOH)]Y[Sar][Trp(βS-Me,7-OMe)][X1][Nle][4Pal][Pip(4-aza)]W[NMeE][hSer](Me)))
[1]
  Kd: 0.34 nM
[2]
  IC50: 1.2 nM
